From ChEMBL document CHEMBL1201862, “PubChem BioAssay data set” (2004)
Activity calls are given as the source filed them.

How the values were obtained:
[1] = target: G-protein coupled receptor 55 (Homo sapiens, UniProt Q9Y2T6); assay: inhibition of LPI-stimulated GPR55 beta-arrestin translocation – imaging, U2OS, beta-arrestin-GFP, LPI agonist, primary screen (AID 2013); assay type: functional;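 further: antagonist potency measured as reduced agonist-driven arrestin aggregation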
[2] = target: DNA dC->dU-editing enzyme APOBEC-3A (Homo sapiens, UniProt P31941); assay: Dose Response confirmation of small molecule APOBEC3A DNA Deaminase Inhibitors via a fluorescence-based single-stranded DNA deaminase assay. [Related pubchem assays (depositor defined):AID493011, AID493024]; assay type: functional
[3] = target: DNA dC->dU-editing enzyme APOBEC-3G (Homo sapiens, UniProt Q9HC16); assay type: functional;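 further: Dose-response counterscreen measuring inhibition of APOBEC3G DNA deaminase activity, run while confirming APOBEC3A inhibitors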
[4] = target: Potassium voltage-gated channel subfamily KQT member 2 (Rattus norvegicus, UniProt O88943); assay: potentiation of rat KCNQ2 current – cell-based, retigabine-insensitive compounds, dose response (AID 2654); assay type: functional
Vero [5] = assay: cells; assay type: functional; details: Chlorocebus sabaeus
[6] = viability of uninfected HEp-2 cells – cell-based, HTS, cytotoxicity control for RSV inhibitor project, dose response (AID 2410); assay type: functional; details: human respiratory syncytial virus
Vero [7] = assay: cells; assay type: functional, cell-based; details: Chlorocebus sabaeus
cells [8] = assay: cells
[9] = target: T1, Zinc finger protein mex-5 (Caenorhabditis elegans, UniProt Q9XUB2); assay: potency of MEX-5 RNA-binding blockers – biochemical, C. elegans, fluorescence polarization, dose response (AID 1960)
T1 sequence (Q9XUB2 whole entry): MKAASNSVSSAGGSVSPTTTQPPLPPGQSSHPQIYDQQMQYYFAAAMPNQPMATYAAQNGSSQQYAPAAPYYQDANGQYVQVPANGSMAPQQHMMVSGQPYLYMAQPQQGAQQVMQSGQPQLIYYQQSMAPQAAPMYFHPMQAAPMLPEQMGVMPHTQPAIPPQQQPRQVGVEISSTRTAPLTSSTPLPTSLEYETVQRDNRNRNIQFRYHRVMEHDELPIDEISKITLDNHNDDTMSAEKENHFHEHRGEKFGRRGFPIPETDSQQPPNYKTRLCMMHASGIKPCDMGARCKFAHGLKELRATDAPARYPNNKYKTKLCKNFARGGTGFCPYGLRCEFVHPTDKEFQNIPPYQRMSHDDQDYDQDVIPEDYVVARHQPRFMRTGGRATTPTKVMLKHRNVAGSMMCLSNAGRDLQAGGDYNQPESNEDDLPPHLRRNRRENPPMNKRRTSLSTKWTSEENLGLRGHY

[10] = target: T2, Histone-lysine N-methyltransferase NSD2 (Homo sapiens, UniProt O96028); assay type: biochemical
T2 sequence (O96028 whole entry): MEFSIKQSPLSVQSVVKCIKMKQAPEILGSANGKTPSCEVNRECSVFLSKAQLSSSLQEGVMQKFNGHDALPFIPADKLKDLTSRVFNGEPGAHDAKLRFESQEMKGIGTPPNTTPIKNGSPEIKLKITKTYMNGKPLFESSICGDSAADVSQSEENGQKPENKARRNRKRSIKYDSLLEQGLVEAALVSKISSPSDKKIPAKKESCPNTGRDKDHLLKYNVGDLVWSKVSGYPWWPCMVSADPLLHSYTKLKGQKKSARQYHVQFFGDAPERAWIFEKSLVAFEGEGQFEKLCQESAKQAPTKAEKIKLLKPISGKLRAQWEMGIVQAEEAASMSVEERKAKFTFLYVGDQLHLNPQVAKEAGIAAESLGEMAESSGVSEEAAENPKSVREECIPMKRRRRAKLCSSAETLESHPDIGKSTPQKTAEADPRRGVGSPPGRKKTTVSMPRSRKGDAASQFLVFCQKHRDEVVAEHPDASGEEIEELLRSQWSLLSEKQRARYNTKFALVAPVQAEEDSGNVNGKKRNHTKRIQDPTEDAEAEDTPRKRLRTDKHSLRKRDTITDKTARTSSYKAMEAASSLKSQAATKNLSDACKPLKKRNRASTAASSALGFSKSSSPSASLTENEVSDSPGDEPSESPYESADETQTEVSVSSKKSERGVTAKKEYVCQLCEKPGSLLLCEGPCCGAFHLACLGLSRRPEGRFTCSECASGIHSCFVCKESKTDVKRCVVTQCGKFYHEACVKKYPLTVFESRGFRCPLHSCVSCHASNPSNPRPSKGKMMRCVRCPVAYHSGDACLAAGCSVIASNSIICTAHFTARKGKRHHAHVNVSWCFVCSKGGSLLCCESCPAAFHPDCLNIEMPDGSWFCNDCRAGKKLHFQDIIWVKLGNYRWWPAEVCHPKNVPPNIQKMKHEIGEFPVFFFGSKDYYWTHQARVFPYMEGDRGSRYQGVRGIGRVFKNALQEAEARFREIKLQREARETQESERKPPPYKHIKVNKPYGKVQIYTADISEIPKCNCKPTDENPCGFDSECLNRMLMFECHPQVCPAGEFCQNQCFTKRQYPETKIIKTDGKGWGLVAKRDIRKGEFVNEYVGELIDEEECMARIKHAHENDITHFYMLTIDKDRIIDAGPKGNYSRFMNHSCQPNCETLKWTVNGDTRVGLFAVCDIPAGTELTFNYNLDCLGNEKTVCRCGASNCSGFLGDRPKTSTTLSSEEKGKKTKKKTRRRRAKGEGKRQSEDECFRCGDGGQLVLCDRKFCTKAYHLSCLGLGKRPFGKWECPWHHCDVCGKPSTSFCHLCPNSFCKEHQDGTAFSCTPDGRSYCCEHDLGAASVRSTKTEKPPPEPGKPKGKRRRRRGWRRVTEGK

[11] = target: T3, RNA-binding protein pos-1 (Caenorhabditis elegans, UniProt G5EF15); assay: disruptors of C. elegans POS-1 RNA interaction – biochemical, fluorescence polarization, dose response (AID 1964);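 further: purified POS-1 fused to maltose binding protein made in E. coli; potency of compounds blocking POS-1 binding to fluorescent RNA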
T3 sequence (G5EF15 whole entry): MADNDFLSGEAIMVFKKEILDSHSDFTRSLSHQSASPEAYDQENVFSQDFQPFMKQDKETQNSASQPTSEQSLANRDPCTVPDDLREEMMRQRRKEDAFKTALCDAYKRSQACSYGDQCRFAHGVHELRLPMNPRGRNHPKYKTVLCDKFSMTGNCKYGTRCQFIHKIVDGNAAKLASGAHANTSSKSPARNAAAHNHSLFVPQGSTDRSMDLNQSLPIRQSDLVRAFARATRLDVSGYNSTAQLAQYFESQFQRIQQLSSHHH

cells [12] = assay type: functional, cell-based
[13] = target: DNA damage-inducible transcript 3 protein (Mus musculus, UniProt P35639); assay type: functional, Cricetulus griseus
cells [14] = assay type: functional, cell-based; remark: listed apart in the source
HT-1080 = assay: HT1080 cell viability loss – fluorescence readout (AID 620); assay type: functional, cell-based; details: Homo sapiens
[15] = target: Luciferin 4-monooxygenase (Photinus pyralis, UniProt P08659); assay: Counter Screen for Luciferase-based Assay Positives. [Related pubchem assays: 620, 618, 411 ]
Mucolipin-3 = target: T4, Mucolipin-3 (Homo sapiens, UniProt Q8TDD5); assay: Dose response cell-based high-throughput screening assay for agonists of the transient receptor potential channel ML3 (TRPML3). [Related pubchem assays: 1526, 1424, 1448 ]; assay type: functional
T4 sequence (Q8TDD5 whole entry): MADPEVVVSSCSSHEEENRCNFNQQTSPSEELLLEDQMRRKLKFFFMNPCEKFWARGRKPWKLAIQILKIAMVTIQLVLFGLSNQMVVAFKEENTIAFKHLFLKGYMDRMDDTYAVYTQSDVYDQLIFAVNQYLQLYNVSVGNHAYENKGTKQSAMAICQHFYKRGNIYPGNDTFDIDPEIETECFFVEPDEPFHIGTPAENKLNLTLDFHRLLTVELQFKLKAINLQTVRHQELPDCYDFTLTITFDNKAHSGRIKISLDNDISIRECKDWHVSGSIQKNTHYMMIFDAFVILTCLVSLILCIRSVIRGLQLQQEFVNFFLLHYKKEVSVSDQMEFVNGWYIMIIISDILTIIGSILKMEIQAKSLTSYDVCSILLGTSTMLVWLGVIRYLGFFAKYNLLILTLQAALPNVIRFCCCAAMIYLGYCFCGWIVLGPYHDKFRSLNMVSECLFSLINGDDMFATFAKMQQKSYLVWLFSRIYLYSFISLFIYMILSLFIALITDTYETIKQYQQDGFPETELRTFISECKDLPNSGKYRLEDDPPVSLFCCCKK

Ion channel NompC = Ion channel NompC (Danio rerio, UniProt Q7T1G6); assay: Fluorescence counterscreen assay for TRPML3 agonists: dose response cell-based high-throughput screening assay to identify agonists of the transient receptor potential channel N1 (TRPN1). [Related pubchem assays: 1526, 1424, 1448 ]; assay type: functional
[16] = non-specific 3'UTR reporter inhibition in Clone20-Shn3RL – cell-based, Renilla luciferase, cherry-picked, counter-screen for Shn3 inhibitor project, dose response (AID 624133); assay type: functional
[17] = reduction of Shn3 3'UTR-driven luciferase in osteoblasts – cell-based, Clone20 osteoblasts, firefly luciferase, cherry-picked, dose response (AID 624132); assay type: functional;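 further: firefly luciferase luminescence from reporter carrying the Shn3 3'UTR in osteoblasts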
[18] = loss of viability in HepG2 cells – cell-based, CellTiter-Glo, cherry-picked, cytotoxicity control for Shn3 inhibitor project, dose response (AID 624134); assay type: functional
HEK293 [19] = assay: inhibition of NOD1-driven NF-kB reporter – cell-based, luminescence, uHTS, primary screen (AID 1578); assay type: functional; details: Homo sapiens
HEK293 [20] = assay: NOD2 signaling inhibitors in MDP-stimulated cells, cell-based, uHTS, luminescence (AID 2001); assay type: functional; details: Homo sapiens
[21] = target: FAD-linked sulfhydryl oxidase ALR (Homo sapiens, UniProt P55789); assay: ALR-catalysed DTT oxidation blockers – biochemical, H2O2 detection, luminescence, cherry-pick, dose response (AID 493248)
[22] = Trypanosoma cruzi growth suppression in host cells – NIH3T3 host cells, beta-gal luminescence, confirmation (AID 2044); assay type: functional, cell-based;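 further: intracellular parasites grown in NIH/3T3 mouse fibroblasts as host cells; luminescent beta-galactosidase reporter signal from transgenic T. cruzi replicating inside host cells; inhibitors lower the luminescence signal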
[23] = NIH-3T3 fibroblast cytotoxicity, dose response, cytotoxicity control, cell-based, fluorescence, Alamar Blue, secondary assay (AID 2327); assay type: functional;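 further: NIH-3T3 mouse fibroblasts cultured with fluconazole at 8 µg/mL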
HEK293 [24] = assay: cells; assay type: functional, cell-based; details: Homo sapiens
HEK293 [25] = assay: cells; assay type: functional, cell-based; details: Homo sapiens; remark: listed apart in the source
[26] = HEK-293T viability loss after treatment – luminescence, T-cell screen hits, cytotoxicity control for TCR NF-kB inhibitor project, dose response (AID 489026); assay type: functional, cell-based;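 further: cells exposed to compound about 14 hours before the viability readout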
[27] = NIH3T3 cell viability loss – ATP luminescence, mouse fibroblasts, counter-screen, dose response (AID 2010); assay type: functional, cell-based;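 further: cells exposed to compound for about 90 hours before reading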
[28] = fluconazole-exposed Candida albicans growth modulators – fluorescence, retest, confirmation (AID 2467); assay type: functional, cell-based

Sequence of DNA dC->dU-editing enzyme APOBEC-3A (P31941 whole entry): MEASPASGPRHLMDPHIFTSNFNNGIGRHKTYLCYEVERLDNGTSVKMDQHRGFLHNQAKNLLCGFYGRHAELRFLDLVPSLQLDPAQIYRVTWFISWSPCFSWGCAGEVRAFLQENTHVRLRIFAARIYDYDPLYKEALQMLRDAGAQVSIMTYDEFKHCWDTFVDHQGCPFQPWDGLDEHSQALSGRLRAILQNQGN
Sequence of DNA dC->dU-editing enzyme APOBEC-3G (Q9HC16 whole entry): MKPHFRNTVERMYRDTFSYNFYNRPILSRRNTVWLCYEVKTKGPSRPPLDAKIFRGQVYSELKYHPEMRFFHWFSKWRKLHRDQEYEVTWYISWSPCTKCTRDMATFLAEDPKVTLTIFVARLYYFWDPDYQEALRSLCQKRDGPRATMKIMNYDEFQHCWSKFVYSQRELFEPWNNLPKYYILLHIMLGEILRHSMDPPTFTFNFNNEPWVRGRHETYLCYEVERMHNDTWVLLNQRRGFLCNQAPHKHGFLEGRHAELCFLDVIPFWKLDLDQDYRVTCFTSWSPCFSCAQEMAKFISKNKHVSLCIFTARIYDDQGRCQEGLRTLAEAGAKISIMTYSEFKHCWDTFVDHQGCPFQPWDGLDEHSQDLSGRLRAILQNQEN
Sequence of Potassium voltage-gated channel subfamily KQT member 2 (O88943 whole entry): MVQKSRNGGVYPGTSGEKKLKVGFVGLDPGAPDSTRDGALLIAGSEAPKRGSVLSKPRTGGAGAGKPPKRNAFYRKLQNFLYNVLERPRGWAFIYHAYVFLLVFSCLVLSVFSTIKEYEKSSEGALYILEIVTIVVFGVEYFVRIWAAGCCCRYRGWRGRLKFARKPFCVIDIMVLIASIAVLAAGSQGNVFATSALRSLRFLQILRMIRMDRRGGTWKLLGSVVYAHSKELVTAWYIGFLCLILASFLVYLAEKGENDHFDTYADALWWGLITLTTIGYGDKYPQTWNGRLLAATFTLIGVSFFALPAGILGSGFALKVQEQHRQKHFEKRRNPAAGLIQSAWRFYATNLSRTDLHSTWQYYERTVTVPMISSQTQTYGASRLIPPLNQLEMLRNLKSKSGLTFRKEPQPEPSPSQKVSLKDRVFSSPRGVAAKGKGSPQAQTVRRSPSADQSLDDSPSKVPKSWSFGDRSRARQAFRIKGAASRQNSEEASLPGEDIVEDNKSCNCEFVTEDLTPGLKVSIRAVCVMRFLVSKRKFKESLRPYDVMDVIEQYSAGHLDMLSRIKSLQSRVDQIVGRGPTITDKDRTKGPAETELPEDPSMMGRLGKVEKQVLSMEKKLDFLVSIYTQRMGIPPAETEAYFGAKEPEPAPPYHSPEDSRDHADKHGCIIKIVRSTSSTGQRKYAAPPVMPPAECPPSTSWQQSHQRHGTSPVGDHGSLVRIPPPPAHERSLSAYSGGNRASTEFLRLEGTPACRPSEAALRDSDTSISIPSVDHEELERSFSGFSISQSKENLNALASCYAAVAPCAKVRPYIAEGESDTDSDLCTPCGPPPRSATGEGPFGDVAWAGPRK
Sequence of DNA damage-inducible transcript 3 protein (P35639 whole entry): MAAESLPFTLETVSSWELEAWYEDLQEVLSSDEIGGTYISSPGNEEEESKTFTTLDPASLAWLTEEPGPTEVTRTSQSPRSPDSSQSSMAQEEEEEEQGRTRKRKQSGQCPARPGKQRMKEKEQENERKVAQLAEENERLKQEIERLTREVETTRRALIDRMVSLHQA
Sequence of G-protein coupled receptor 55 (Q9Y2T6 whole entry): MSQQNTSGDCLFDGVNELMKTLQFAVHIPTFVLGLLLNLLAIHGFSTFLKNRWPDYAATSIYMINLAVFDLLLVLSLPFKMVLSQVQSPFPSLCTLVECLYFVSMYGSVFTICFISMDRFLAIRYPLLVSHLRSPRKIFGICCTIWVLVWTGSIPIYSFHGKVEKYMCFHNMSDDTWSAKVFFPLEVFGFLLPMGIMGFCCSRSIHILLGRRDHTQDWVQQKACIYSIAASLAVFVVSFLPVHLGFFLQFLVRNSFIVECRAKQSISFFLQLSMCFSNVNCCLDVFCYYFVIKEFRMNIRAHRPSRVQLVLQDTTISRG
Sequence of Ion channel NompC (Q7T1G6 whole entry): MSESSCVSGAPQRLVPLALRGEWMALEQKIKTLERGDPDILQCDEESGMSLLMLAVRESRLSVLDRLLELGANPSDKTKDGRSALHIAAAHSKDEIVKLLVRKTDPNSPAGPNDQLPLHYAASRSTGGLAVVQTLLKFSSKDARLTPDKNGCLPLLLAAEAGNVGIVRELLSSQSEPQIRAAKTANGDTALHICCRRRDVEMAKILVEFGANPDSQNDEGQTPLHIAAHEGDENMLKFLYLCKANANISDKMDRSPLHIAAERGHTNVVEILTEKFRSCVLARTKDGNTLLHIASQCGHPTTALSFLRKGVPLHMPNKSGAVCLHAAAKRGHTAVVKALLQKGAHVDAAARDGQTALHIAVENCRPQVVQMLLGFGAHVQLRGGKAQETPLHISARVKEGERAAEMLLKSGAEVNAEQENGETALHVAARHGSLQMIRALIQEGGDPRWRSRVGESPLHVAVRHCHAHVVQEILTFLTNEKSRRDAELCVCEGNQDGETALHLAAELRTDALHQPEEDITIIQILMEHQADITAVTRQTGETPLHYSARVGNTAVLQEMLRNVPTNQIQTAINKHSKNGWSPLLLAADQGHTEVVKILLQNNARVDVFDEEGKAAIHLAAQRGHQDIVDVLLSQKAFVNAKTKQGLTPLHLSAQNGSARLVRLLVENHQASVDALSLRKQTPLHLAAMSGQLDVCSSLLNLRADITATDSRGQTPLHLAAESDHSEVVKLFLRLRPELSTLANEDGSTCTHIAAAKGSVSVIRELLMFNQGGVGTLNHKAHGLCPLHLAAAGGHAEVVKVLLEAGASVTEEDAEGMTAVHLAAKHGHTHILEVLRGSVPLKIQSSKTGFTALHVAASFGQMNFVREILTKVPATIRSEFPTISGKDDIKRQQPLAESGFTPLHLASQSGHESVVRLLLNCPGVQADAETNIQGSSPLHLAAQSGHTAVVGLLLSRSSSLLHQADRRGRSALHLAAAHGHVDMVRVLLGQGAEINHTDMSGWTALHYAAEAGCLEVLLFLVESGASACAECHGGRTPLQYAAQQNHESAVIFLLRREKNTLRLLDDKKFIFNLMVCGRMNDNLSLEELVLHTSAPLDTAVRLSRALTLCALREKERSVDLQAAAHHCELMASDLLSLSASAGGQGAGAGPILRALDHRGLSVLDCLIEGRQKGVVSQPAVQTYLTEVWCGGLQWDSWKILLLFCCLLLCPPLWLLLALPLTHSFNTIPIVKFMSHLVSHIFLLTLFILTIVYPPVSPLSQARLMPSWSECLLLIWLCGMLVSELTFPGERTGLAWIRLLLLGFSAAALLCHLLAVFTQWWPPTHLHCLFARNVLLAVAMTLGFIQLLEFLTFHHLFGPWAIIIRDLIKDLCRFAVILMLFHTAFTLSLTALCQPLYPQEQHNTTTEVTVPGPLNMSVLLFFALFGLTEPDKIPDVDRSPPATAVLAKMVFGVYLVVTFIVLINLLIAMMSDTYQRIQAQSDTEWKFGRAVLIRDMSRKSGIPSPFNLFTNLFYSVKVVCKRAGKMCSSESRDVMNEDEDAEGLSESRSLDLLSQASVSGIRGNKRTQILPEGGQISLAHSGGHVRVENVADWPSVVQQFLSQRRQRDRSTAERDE
Sequence of Luciferin 4-monooxygenase (P08659 whole entry): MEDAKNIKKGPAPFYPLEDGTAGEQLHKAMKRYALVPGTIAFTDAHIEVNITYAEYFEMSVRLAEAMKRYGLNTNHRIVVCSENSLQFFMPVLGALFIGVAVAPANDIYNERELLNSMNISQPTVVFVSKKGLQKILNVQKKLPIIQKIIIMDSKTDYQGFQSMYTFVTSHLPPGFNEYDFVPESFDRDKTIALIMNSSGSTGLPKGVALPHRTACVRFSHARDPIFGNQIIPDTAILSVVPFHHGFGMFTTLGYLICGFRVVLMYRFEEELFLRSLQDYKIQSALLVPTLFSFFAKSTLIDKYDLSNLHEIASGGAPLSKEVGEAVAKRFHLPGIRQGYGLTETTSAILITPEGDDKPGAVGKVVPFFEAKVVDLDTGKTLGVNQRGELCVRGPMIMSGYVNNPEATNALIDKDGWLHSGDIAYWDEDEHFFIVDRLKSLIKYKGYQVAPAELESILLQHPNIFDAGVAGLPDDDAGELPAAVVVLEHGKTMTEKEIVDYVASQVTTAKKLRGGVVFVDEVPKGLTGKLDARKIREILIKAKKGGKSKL
Sequence of FAD-linked sulfhydryl oxidase ALR (P55789 whole entry): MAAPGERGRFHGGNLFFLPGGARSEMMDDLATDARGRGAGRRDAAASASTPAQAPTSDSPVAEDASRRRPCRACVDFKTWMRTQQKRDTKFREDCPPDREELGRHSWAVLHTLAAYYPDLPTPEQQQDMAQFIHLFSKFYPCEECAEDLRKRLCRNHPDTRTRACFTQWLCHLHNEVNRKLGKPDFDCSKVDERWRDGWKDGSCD

## CCCSc1ccc(-c2nn(-c3ccccc3)cc2/C=C(/C#N)C(=O)N2CCOCC2)cc1
[1]
  IC50: < 0.5 µM (active)

## O=C(CSc1nnnn1-c1ccccc1)Nc1ccc(N2CCOCC2)c(Cl)c1
[2]
  IC50: 6.63 µM (active)
[3]
  IC50: 9.68 µM (active)

## O=C(Nc1cccnc1)Nc1ccc2c(c1)OCO2
[4]
  EC50: 152 µM (active)

## Cc1cc(NC(=O)COC(=O)c2ccccc2S(=O)(=O)N(C)c2ccccc2)no1
Vero [5]
  CC50: > 25 µM (active)
[6]
  CC50: 34.1 µM (active)
Vero [7]
  IC50: > 25 µM (active)
Cells [8]
  IC50: 9.76 µM (active)

## Cc1ccc(CN2C(=O)N/C(=C\c3cccn3-c3cccc(C(=O)O)c3)C2=O)cc1
[9]
  EC50: > 300 µM (not active)
[10]
  AC50: 12.8 µM (active)
[2]
  IC50: 10.3 µM (active)
[11]
  EC50: > 300 µM (not active)
[3]
  IC50: 25.7 µM (active)

## CCC(Cc1ccccc1)n1c(=S)[nH]c2ccccc2c1=O (stereo unspecified)
Cells [12]
  EC50: > 350 µM (not active)
[13]
  Absolute IC50 (CHOP): 10 µM
Cells [14]
  EC50: > 350 µM (not active)

## Cc1ccc(-c2nc3cc(NC(=O)C(C)C)ccc3o2)cc1
HT-1080
  EC50: > 50 µM (not active)
[15]
  EC50: 0.23 µM (active)

## Cc1cc(N)n2nc(-c3ccccc3)c(-c3ccccc3)c2n1
[1]
  IC50: 2.35 µM (active)

## Cc1nc(NC(=O)c2csc3ccccc23)sc1C
Mucolipin-3
  EC50: 8.95 µM (active)
Ion channel NompC
  EC50: > 29.9 µM (not active)

## COc1ccccc1-c1cc(C(F)(F)F)nc(S(=O)(=O)CCCC(=O)Nc2cc(C)on2)n1
[16]
  AC50: 16 µM (active)
[17]
  AC50: 6.57 µM (active)
[13]
  Absolute IC50 (CHOP): 10 µM
[18]
  AC50: 28 µM (active)

## CC1CCN(S(=O)(=O)c2ccc(Br)s2)CC1
Mucolipin-3
  EC50: > 29.9 µM (not active)
Ion channel NompC
  EC50: > 29.9 µM (not active)

## Cc1cncc(NC(=O)Nc2cccc(F)c2)c1
[4]
  EC50: 12.4 µM (active)

## Cc1cc(NC(=O)Nc2cccc(F)c2)cnc1Br
[4]
  EC50: 6.61 µM (active)

## Cc1ccc(C=Cc2ccc(N(C)C)cc2)[n+](C)c1
HEK293 [19]
  EC50: 4.84 µM (active)
[2]
  IC50: 3.16 µM (active)
HEK293 [20]
  IC50: 16 µM (inactive)
[21]
  AC50: 1.24 µM (active)
[22]
  EC50: 0.232 µM (active)
[23]
  EC50: > 160 µM (inconclusive)
HEK293 [24]
  IC50: > 20 µM (inactive)
HEK293 [25]
  IC50: 10.8 µM (active)
[3]
  IC50: 4.34 µM (active)
[26]
  IC50: > 80 µM (inactive)
[27]
  EC50: 16.1 µM (active)
[28]
  EC50: 3.83 µM (active)
